Experimental data: patent publication US20080119412A1, “Polypeptides for Modulating Binding of Trp Channel Proteins and Trp- Associated Proteins” (NoNO Inc., priority 2003, published 2008)
Residues, ends and D or L forms follow the SMILES beside them. *: point of attachment. Biotin = O=C1N[C@H]2[C@H](CS[C@H]2CCCCC(=O)*)N1

Columns and labels:
neurons = test: Oxygen-glucose deprivation (OGD) of neurons: ROS production, calcium uptake, cell death; type: cell-based; conditions: prolonged OGD, FIG. 7
Method: The fraction of dead cells was determining by dividing the number of neurons expressing GFP which became stained with propidium iodide 20 h after OGD by the number of neurons expressing GFP at the beginning of the experiment. Data for each culture was obtained from counting cells in 3 high power microscope fields per experiment.

ZO-1 d2 [1] = biological target: T1, ZO-1 d2 (Homo sapiens, UniProt Q07157, DEL264-264); test: G3 assay titration, GST-PDZ fusion / biotinylated peptide; type: binding; conditions: for ODmax (450 nm): Table 10, titration of peptides with ZO-1 d2
T1 construct: made in house; host or cells: E. coli (DH5alpha, BL21 or JM109)
T1 sequence (Q07157 with tags, fused parts or gaps DEL264-264): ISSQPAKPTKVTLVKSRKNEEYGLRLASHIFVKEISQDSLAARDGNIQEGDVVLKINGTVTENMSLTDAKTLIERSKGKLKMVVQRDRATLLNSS
Method: (§1) The G3 assay is identical to the G0 assay with the following exceptions. The peptides are typically present at 0.1 μM rather than 20 μM. The peptides are also pre-incubated with the HRP-streptavidin prior to adding to the assay plate. In the G0 assay, free peptide is incubated with the PDZ proteins prior to the addition of the HRP-streptavidin. Thus, for the G0 assay one can lose signal if the bound peptide dissociates from the PDZ protein prior to the addition of the HRP-streptavidin. In the G3 modified assay the HRP-streptavidin/peptide complex is added to the plate in one step, thus increasing the likelihood that all the bound peptide will be bound to HRP-streptavidin. The G3 modified assay increases the chance of observing weak interactions.
(§2) This example describes assays to identify binding between TRPM7 and PDZ domains. GST-PDZ fusions are produced that each contain an entire PDZ domain (or multiple PDZ domains), the collection encompassing approximately 90% of all PDZ domains identified in the human genome. (See Table 5 and Section V (PDZ Proteins and PL Protein Interactions Disclosure). Biotinylated peptide corresponding to 11 residues of Tat coupled to the C-terminal 9 amino acids of TRPM7 ([…]; SEQ ID NO:258) is synthesized and purified by HPLC.
(§3) • Nunc MaxiSorp 96 well Immuno-plate, Nunc • PBS pH 7.4 (phosphate buffered saline, 8 g NaCl, 0.29 g KCl, 1.44 g Na2HPO4, 0.24 g KH2PO4, add H2O to 1 liter and pH 7.4; 0.2 μm filter) • Assay Buffer: 2% BSA in PBS (20 g of bovine serum albumin per liter PBS, fraction V, ICN Biomedicals, cat#IC15142983 • Goat anti-GST polyclonal Ab, stock 5 mg/ml, stored at 4° C., Amersham Pharmacia cat#27-4577-01 • Dilute 1:1000 in PBS, final concentration 5 μg/ml. • HRP-Streptavidin, 2.5 mg/2 ml stock stored at 4° C., Zymed cat#43-4323, dilute 1:2000 into Assay buffer, final concentration of […] • Wash Buffer, PBS • Biotinylated peptides (HPLC purified, stock solution stored in −20° C. freezer) • GST-PRISM proteins (stock stored at −80° C., after 1st thaw store in −10° C. freezer) • TMB (3,3′,5,5′, teramethylbensidine), tablets, Sigma cat.#T5525 • Per plate, dissolve 1 tablet in 1 ml DMSO, add 9 ml Citrate/Phosphate buffer pH 5.4 and 2 μL H2O2 • 0.1 M H2SO4, Sigma cat.#S1526 • 12-w multichannel pipettor & tips • 50 ml reagent reservoirs, Costar#4870 • 50, 15 ml polypropylene conical tubes • Costar Transtar 96 Costar #7605 • Transtar 96 Cartridge Costar #7610 • Molecular Devices microplate reader (450 & 650 nm filters) with SoftMax Pro software *When using reagents stored at or 4° C. or −20° C., remove & keep on ice
(§4) • 1. Coat plate with 100 μl of 5 μg/ml anti-GST, overnight at 4° C. • 2. Dump contents of plate & out tap dry on paper towels • 3. Block with 200 μl Assay Buffer for 2 hrs at room temperature • 4. Prepare proteins at 5 μg/ml in Assay Buffer • 5. Wash 3× with cold PBS (4° C.), avoiding letting the plates dry out • 6. Add proteins at 50 μl per well, incubate 1 to 2 hrs at 4° C. • 7. Prepare peptides to desired concentration in Assay Buffer • 8. Wash 3× with cold PBS (4° C.), avoiding letting the plates dry out • 9. Add HRP-Streptavidin/peptide complex [prepared by incubating for 20 minutes at room temperature HRP-Streptavidin (1:2000) with the desired biotin-peptide concentration for 20 minutes at room temperature] at 50 μl per well on ice • 10. Place at room temperature for exactly 30 minutes • 11. Promptly wash 5× with PBS at room temperature • 12. Add 100 μl/well TMB substrate (write time on plate) • 13. Incubate in dark at room temperature for a maximum of 30 minutes • 14. Read plate at 25 minutes (650 nm), optional • 15. Stop reaction with 100 μl of 0.18 M H2SO4, 30 minutes after adding TMB • Take last reading at 450 nm soon after stopping reaction
(§5) The G3 assay was performed using 0.1 μM peptide representing 11 amino acids of Tat fused to the final 9 amino acids of TRPM7 ([…]; SEQ ID NO:258). […]

INADL d3 [2] = biological target: T2, INADL d3 (Homo sapiens, UniProt Q8NI35); test: as above; type: binding; conditions: for ODmax (450 nm): Table 10, titration of peptides with INADL d3
T2 construct: made in house; host or cells: E. coli (DH5alpha, BL21 or JM109)
T2 sequence (Q8NI35 with tags, fused parts or gaps): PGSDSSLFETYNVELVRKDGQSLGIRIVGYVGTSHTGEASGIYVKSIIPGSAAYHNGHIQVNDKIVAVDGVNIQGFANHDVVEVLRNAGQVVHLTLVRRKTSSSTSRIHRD
Method: as §1, §2, §3, §4, §5

ZO-1 d2 [3] = biological target: T1, ZO-1 d2; test: G assay, peptide binding to GST-PDZ fusion (Table 11); conditions: Table 11, titrations or binding assays
Method: (§6) The binding of labeled PL peptide (e.g., as listed in TABLE 2 and TABLE 4) to this surface is then measured. In a preferred embodiment, the assay is carried out as follows:
(§7) (1) A PDZ-domain polypeptide is bound to a surface, e.g. a protein binding surface. In a preferred embodiment, a GST/PDZ fusion protein containing one or more PDZ domains is bound to a polystyrene 96-well plate. […] In one embodiment, the GST/PDZ fusion protein is bound via an anti-GST antibody that is coated onto the 96-well plate. Adequate binding to the plate can be achieved when:
(§8) (2) Biotinylated PL peptides are allowed to react with the surface by addition of 50 μl per well of 20 μM solution of the biotinylated peptide in PBS/BSA for 10 minutes at 4° C., followed by an additional 20 minute incubation at 25° C. The plate is washed 3 times with ice cold PBS.
(§9) (3) The binding of the biotinylated peptide to the GST/PDZ fusion protein surface can be detected using a variety of methods and detectors known to one of skill in the art. In one embodiment, 100 μl per well of 0.5 μg/ml streptavidin-horseradish peroxidase (HRP) conjugate dissolved in BSA/PBS is added and allowed to react for 20 minutes at 4° C. The plate is then washed 5 times with 50 mM Tris pH 8.0 containing 0.2% Tween 20, and developed by addition of 100 μl per well of HRP-substrate solution (TMB, Dako) for 20 minutes at room temperature (RT). The reaction of the HRP and its substrate is terminated by addition of 100 μl per well of 1 M sulfuric acid, and the optical density (O.D.) of each well of the plate is read at 450 um.
(§10) (4) Specific binding of a PL peptide and a PDZ domain polypeptide is determined by comparing the signal from the well(s) in which the PL peptide and PDZ domain polypeptide are combined, with the background signal(s). […] Typically a specific or selective reaction will be at least twice background signal, more typically more than 5 times background, and most typically 10 or more times the background signal. […] Correspondingly, a statistical test (e.g. a T-test) comparing repeated measurements of the signal with -repeated measurements of the background will result in a p-value <0.05, more typically a p-value <0.01, and most typically a p-value <0.001 or less. As noted, in an embodiment of the G assay, the signal from binding of a given PL peptide to immobilized (surface bound) GST polypeptide alone is one suitable negative control (sometimes referred to as B1). Because all measurement are done in multiples (i.e. at least duplicate) the arithmetic mean (or, equivalently, average.) of several measurements is used in determining the binding, and the standard error of the mean is used in determining the probable error in the measurement of the binding. The standard error of the mean of N measurements equals the square root of the following: the sum of the squares of the difference between each measurement and the mean, divided by the product of (N) and (N−1). Thus, in one embodiment, specific binding of the PDZ protein to the platebound peptide is determined by comparing the mean signal (“mean S”) and standard error of the signal (“SE”) for a particular PL-PDZ combination with the mean B1.

TIP1 d1 = biological target: T3, TIP1 d1 (Homo sapiens, UniProt O14907); test: G3 assay titration, GST-PDZ fusion / biotinylated peptide; type: binding
T3 construct: made in house; host or cells: E. coli (DH5alpha, BL21 or JM109)
T3 sequence (O14907 14-116): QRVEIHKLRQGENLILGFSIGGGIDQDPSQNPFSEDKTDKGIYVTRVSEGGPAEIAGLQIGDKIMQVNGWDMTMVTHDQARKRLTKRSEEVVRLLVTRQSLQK
Method: as §1, §2, §3, §4
The G3 assay was performed on a subset of the PDZ domains as in Example II except that the concentration of peptide was 0.002 μM, […], 0.1 μM, 0.2 μM, 1 μM, and 2 μM. Data was fitted to the equation: […]

TRPM7 = TRPM7 (Homo sapiens, UniProt Q96QT4); conditions: intracellular free; cited from earlier work
INADL d3 [4] = biological target: T2, INADL d3; test: G assay, peptide binding to GST-PDZ fusion (Table 11); conditions: Table 11, titrations or binding assays
Method: as §6, §7, §8, §9, §10

TRPM2 = TRPM2 (Homo sapiens, UniProt O94759); conditions: binding to carboxy-terminal NUDT9 Nudix hydrolase domain; read-out: EC50, gating of TRPM2 channel; cited from earlier work
Chain of TRPM2 (O94759 whole entry, the tested form may be a part): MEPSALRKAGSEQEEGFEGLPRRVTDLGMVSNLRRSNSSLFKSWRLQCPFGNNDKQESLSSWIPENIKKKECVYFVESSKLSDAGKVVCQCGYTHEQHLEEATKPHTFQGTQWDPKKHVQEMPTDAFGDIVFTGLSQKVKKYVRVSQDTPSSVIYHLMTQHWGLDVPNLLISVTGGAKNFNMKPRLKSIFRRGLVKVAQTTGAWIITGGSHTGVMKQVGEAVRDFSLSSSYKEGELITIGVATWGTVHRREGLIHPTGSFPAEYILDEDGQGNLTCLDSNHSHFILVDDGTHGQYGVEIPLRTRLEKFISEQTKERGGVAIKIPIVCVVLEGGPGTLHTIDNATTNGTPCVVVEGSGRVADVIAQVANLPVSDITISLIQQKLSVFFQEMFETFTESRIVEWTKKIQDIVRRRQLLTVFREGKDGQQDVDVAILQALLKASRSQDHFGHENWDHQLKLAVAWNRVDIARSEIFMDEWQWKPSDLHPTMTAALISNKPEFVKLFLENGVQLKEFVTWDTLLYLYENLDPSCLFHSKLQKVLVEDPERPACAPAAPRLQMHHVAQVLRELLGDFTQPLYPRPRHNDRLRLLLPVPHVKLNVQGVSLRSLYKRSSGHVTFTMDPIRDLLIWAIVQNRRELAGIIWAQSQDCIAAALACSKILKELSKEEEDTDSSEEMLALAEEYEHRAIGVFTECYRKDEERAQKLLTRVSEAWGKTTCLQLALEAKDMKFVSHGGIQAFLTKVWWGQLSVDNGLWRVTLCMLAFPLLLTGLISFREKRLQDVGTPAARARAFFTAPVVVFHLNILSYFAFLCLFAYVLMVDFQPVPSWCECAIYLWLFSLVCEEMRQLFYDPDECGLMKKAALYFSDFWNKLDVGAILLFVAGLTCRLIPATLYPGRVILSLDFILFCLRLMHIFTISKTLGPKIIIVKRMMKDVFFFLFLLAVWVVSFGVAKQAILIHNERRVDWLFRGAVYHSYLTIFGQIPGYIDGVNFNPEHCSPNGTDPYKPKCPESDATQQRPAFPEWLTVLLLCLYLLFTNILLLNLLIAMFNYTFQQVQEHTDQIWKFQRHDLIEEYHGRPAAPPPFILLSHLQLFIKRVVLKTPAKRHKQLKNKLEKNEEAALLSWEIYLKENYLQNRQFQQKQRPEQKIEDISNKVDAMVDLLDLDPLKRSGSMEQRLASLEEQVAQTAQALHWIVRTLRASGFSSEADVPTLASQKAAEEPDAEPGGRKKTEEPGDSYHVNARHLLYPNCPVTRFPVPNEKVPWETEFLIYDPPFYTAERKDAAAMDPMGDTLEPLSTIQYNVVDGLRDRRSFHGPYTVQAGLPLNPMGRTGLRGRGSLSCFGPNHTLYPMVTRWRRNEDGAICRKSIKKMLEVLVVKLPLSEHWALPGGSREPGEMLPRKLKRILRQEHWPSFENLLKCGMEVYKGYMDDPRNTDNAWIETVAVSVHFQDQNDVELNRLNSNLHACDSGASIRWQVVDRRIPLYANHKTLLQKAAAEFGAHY

Chain of TRPM7 (Q96QT4 whole entry, the tested form may be a part): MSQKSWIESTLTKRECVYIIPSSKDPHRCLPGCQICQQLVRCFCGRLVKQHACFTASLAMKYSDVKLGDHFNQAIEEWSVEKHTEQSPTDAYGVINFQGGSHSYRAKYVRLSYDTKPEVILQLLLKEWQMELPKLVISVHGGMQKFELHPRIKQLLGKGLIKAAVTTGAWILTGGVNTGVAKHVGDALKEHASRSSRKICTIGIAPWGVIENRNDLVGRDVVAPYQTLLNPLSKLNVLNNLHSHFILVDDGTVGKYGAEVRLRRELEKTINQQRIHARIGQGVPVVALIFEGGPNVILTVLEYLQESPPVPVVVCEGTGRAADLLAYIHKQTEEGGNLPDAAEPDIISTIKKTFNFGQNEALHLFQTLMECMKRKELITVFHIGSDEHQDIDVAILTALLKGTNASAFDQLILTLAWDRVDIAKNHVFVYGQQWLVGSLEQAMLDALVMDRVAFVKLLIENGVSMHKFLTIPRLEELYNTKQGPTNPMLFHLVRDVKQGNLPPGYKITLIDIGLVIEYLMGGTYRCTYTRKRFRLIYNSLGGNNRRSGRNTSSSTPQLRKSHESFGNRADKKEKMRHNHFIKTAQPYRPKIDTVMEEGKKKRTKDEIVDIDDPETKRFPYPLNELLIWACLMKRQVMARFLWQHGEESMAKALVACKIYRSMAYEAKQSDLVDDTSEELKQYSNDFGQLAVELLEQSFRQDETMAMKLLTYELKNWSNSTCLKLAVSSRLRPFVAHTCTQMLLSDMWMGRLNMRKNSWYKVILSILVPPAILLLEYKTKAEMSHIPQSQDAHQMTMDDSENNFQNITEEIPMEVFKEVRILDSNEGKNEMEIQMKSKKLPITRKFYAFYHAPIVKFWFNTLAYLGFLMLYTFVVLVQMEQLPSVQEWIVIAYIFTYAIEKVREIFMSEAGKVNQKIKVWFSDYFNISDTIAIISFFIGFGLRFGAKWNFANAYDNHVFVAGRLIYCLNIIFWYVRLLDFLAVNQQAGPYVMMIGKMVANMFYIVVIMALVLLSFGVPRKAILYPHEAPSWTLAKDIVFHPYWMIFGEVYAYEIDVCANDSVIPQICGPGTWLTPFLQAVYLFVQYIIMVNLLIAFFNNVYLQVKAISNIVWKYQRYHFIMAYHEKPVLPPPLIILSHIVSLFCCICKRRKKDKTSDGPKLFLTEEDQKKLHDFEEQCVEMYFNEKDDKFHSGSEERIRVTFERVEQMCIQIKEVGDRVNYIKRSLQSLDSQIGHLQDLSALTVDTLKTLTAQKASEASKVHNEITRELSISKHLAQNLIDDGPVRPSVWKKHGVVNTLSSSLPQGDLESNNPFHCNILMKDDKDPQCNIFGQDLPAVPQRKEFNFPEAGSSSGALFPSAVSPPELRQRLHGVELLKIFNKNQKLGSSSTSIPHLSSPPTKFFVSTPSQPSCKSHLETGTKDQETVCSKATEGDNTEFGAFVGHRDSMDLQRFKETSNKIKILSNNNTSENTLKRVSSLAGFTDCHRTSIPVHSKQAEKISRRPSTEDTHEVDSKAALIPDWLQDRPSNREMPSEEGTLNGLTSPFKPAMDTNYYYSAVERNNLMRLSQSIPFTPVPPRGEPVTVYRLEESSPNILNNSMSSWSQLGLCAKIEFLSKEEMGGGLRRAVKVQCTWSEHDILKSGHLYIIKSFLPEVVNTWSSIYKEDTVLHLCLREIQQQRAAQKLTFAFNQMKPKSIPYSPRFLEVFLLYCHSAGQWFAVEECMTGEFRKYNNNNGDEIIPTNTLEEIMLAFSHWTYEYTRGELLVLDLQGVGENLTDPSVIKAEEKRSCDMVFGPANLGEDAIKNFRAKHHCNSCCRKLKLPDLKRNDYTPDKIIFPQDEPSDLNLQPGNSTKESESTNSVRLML

Row | Structure (SMILES) | EC50 (ZO-1 d2 [1]) | ODmax (450 nm) (ZO-1 d2 [1]) | EC50 (INADL d3 [2]) | ODmax (450 nm) (INADL d3 [2]) | PDZ domain bound (ZO-1 d2 [3]) | PDZ domain bound (INADL d3 [4]) | further results
1 | [Gd+3] [Gd^3+] | – | – | – | – | – | – | survival of neurons (neurons): permit survival of neurons destined to die from prolonged OGD
2 | CC(C)C[C@H](NC(=O)[C@H](CO)NC(=O)[C@@H](NC(=O)[C@H](CC(C)C)NC(=O)[C@H](CCCNC(=N)N)NC(=O)[C@H](CC(=O)O)NC(=O)CNC(=O)[C@H](CCCNC(=N)N)NC(=O)[C@H](C)NC(=O)[C@H](CCCNC(=N)N)NC(=O)[C@H](CCCNC(=N)N)NC(=O)[C@H](CCCNC(=N)N)NC(=O)[C@H](CCC(N)=O)NC(=O)[C@H](CCCNC(=N)N)NC(=O)[C@H](CCCNC(=N)N)NC(=O)[C@H](CCCCN)NC(=O)[C@H](CCCCN)NC(=O)[C@H](CCCNC(=N)N)NC(=O)CNC(=O)[C@H](Cc1ccc(O)cc1)NC(=O)CCCC[C@@H]1SC[C@@H]2NC(=O)N[C@@H]21)C(C)C)C(=O)O [Peptide 1843] (Biotin-YGRKKRRQRRRARGDRLVSL-OH; C-terminus assumed) | 0.017 µM | 2.20 | < 2 µM | 1.20 | ZO-1 D2 | – | –
3 | CC(C)[C@H](NC(=O)[C@H](CCC(=O)O)NC(=O)[C@@H](NC(=O)[C@H](CCC(=O)O)NC(=O)[C@H](CCCNC(=N)N)NC(=O)[C@H](Cc1ccccc1)NC(=O)[C@H](Cc1c[nH]cn1)NC(=O)[C@H](CCCCN)NC(=O)[C@H](CCC(=O)O)NC(=O)[C@H](CCCNC(=N)N)NC(=O)[C@H](CCCNC(=N)N)NC(=O)[C@H](CCCNC(=N)N)NC(=O)[C@H](CCC(N)=O)NC(=O)[C@H](CCCNC(=N)N)NC(=O)[C@H](CCCNC(=N)N)NC(=O)[C@H](CCCCN)NC(=O)[C@H](CCCCN)NC(=O)[C@H](CCCNC(=N)N)NC(=O)CNC(=O)[C@H](Cc1ccc(O)cc1)NC(=O)CCCC[C@@H]1SC[C@@H]2NC(=O)N[C@@H]21)[C@@H](C)O)C(=O)O [AA353] (Biotin-YGRKKRRQRRREKHFRETEV-OH) | – | – | – | – | – | – | EC50 (TIP1 d1): < 0.002 µM
4 | [Mg+2] [Mg^2+] | – | – | – | – | – | – | concentration inhibiting TRPM7 (TRPM7): 0.6 mM
5 | CC[C@H](C)[C@H](NC(=O)[C@H](CCC(N)=O)NC(=O)[C@H](Cc1ccc(O)cc1)NC(=O)[C@H](CCCCN)NC(=O)[C@H](CCCNC(=N)N)NC(=O)[C@H](CC(=O)O)NC(=O)[C@@H](NC(=O)[C@H](CCCNC(=N)N)NC(=O)[C@H](CO)NC(=O)[C@H](CCCNC(=N)N)NC(=O)[C@H](CCCNC(=N)N)NC(=O)[C@H](CCCNC(=N)N)NC(=O)[C@H](CCC(N)=O)NC(=O)[C@H](CCCNC(=N)N)NC(=O)[C@H](CCCNC(=N)N)NC(=O)[C@H](CCCCN)NC(=O)[C@H](CCCCN)NC(=O)[C@H](CCCNC(=N)N)NC(=O)CNC(=O)[C@H](Cc1ccc(O)cc1)NC(=O)CCCC[C@@H]1SC[C@@H]2NC(=O)N[C@@H]21)[C@@H](C)O)C(=O)O [Peptide 1839] (Biotin-YGRKKRRQRRRSRTDRKYQI-OH; C-terminus assumed) | < 0.02 µM | 2.50 | 0.13 µM | 1.60 | – | INADL D3 | –
6 | C[C@H](NC(=O)[C@H](Cc1c[nH]c2ccccc12)NC(=O)[C@H](Cc1ccc(O)cc1)NC(=O)[C@H](CCCCN)NC(=O)[C@H](CCCNC(=N)N)NC(=O)[C@H](CC(=O)O)NC(=O)[C@@H](NC(=O)[C@H](CCCNC(=N)N)NC(=O)[C@H](CO)NC(=O)[C@H](CCCNC(=N)N)NC(=O)[C@H](CCCNC(=N)N)NC(=O)[C@H](CCCNC(=N)N)NC(=O)[C@H](CCC(N)=O)NC(=O)[C@H](CCCNC(=N)N)NC(=O)[C@H](CCCNC(=N)N)NC(=O)[C@H](CCCCN)NC(=O)[C@H](CCCCN)NC(=O)[C@H](CCCNC(=N)N)NC(=O)CNC(=O)[C@H](Cc1ccc(O)cc1)NC(=O)CCCC[C@@H]1SC[C@@H]2NC(=O)N[C@@H]21)[C@@H](C)O)C(=O)O [Peptide 1832] (Biotin-YGRKKRRQRRRSRTDRKYWA-OH; C-terminus assumed) | < 0.02 µM | 2.10 | 0.2 µM | 0.60 | ZO-1 D2 | INADL D3 | –
7 | Nc1ncnc2c1ncn2[C@@H]1O[C@H](COP(=O)(O)OP(=O)(O)OC[C@H]2OC(O)[C@H](O)[C@@H]2O)[C@@H](O)[C@H]1O (some centres unmarked) [ADP ribose] | – | – | – | – | – | – | EC50 (TRPM2): 100 µM
8 | NC(=O)c1ccc[n+]([C@@H]2O[C@H](COP(=O)([O-])OP(=O)(O)OC[C@H]3O[C@@H](n4cnc5c(N)ncnc54)[C@H](O)[C@@H]3O)[C@@H](O)[C@H]2O)c1 [nicotinamide adenine dinucleotide] | – | – | – | – | – | – | EC50 (TRPM2): 1000 µM
9 | CC[C@H](C)[C@H](NC(=O)[C@@H](NC(=O)[C@H](CCCNC(=N)N)NC(=O)[C@H](CC(=O)O)NC(=O)[C@H](CO)NC(=O)[C@H](CCCNC(=N)N)NC(=O)[C@H](C)NC(=O)[C@H](CCCNC(=N)N)NC(=O)[C@H](CCCNC(=N)N)NC(=O)[C@H](CCCNC(=N)N)NC(=O)[C@H](CCC(N)=O)NC(=O)[C@H](CCCNC(=N)N)NC(=O)[C@H](CCCNC(=N)N)NC(=O)[C@H](CCCCN)NC(=O)[C@H](CCCCN)NC(=O)[C@H](CCCNC(=N)N)NC(=O)CNC(=O)[C@H](Cc1ccc(O)cc1)NC(=O)CCCC[C@@H]1SC[C@@H]2NC(=O)N[C@@H]21)[C@@H](C)O)C(=O)N[C@@H](Cc1c[nH]c2ccccc12)C(=O)N[C@@H](C)C(=O)O [Peptide 1829] (Biotin-YGRKKRRQRRRARSDRTIWA-OH; C-terminus assumed) | 0.007 µM | 2.90 | – | 1.40 | ZO-1 D2 | INADL D3 | –
